Tested on: rabbit aorta
Assay: Anti-atherosclerotic experiment: cholesterol-fed rabbits, aorta stained with Oil red O
Format: in vivo, Chinchilla rabbits
Details: 1% cholesterol diet, 15 weeks, in drinking water; dihydrogen phosphate 165 mg/kg, hydrogen fumarate 174 mg/kg; compared with control and Meldonium dihydrate (124 mg/kg) groups
Protocol: Pharmacological experiment was carried out to examine the anti-atherosclerotic effect of Meldonium dihydrogen phosphate or Meldonium hydrogen fumarate in the aorta.
The experiments with Meldonium salt such as Meldonium dihydrogen phosphate or Meldonium hydrogen fumarate, were performed in 38 Chinchilla rabbits weighing 2.5-3.0 kg. The rabbits were randomly divided into 4 groups: Control (n=11), Meldonium dihydrate group (n=9) and Meldonium dihydrogen phosphate group (n=9) and Meldonium hydrogen fumarate group (n=9).
Experimental atherosclerosis, i.e. serum hyperlipidaemia and the atherosclerotic manifestations in the aorta, was induced by administering 1% cholesterol by weight together with standard diet.
The rabbits were fed with standard diet with 1% cholesterol dissolved in the sunflower seed oil (4% from the total amount of food). The diet was enriched with cholesterol as follows: 10 kg standard food for rabbits was heated to 60° C. and was mixed with 100 g warm cholesterol dissolved in 400 ml sunflower seed oil. The rabbits received 200 g of this food per day.
The experimental groups were given Meldonium dihydrate, Meldonium dihydrogen phosphate and Meldonium hydrogen fumarate, in a dose 124 mg/kg, 165 mg/kg and 174 mg/kg. The preparations were added to drinking water.
After 15 weeks the rabbits were sacrificed. Heart, aorta and liver were collected for examination. […]

SMILES	reduction of the area of atherosclerotic plaque in rabbit aorta [fold]
C[N+](C)(C)NCCC(=O)O.O=P([O-])(O)O [Meldonium dihydrogen phosphate]	> 2
C[N+](C)(C)NCCC(=O)O.O=C([O-])C=CC(=O)O [Meldonium hydrogen fumarate]	> 2

Reference: patent publication US20100234459A1, “MEDICALL USE OF 3-(2,2,2,-TRIMETHYLYHDRAZINIUM) PROPIONATE HDROGEN FUMARATE AND DIHYDROGEN PHOSEPHATE” (JSC GRINDEKS, priority 2007, published 2010)
